The target in one experiment is T1, PD-1/PD-L1 interaction (Homo sapiens, UniProt Q9NZQ7).
T1 construct: expressed in transfected cells
The experiment can be described thus: PD-1/PD-L1 blockage cell-based bioassay (Jurkat NFAT luciferase / CHO-PDL1 co-culture). The note with it: Jurkat NFAT cells co-cultured with CHO-PDL1 cells, 6 h, luminescence.

Experiment [1] has as its target interaction between PD-1 and PD-L1 (Homo sapiens, UniProt Q9NZQ7). The experiment can be described thus: PD-1/PD-L1 protein-protein interaction assay (ALPHA). It counts as binding. The note with it: 2 nM His-tagged human PD-L1, 0.6 nM PD-1-Fc, AlphaScreen. A general note: Alpha assays give light when donor and acceptor beads are brought close together.

The term IC50 denotes the point on the concentration scale where inhibition reaches its midpoint. The low end stands for inhibition by little substance, the high end for a need for much substance.

SMILES strings stand for the structures.

interaction between PD-1 and PD-L1, sequence (Q9NZQ7 19-238 limits assumed): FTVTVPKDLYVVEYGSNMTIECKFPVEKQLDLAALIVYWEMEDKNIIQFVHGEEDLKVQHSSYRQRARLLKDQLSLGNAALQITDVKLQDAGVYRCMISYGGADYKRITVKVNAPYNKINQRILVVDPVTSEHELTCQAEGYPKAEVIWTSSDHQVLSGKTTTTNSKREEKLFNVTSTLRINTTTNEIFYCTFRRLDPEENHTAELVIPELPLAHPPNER
T1 sequence (Q9NZQ7 19-290): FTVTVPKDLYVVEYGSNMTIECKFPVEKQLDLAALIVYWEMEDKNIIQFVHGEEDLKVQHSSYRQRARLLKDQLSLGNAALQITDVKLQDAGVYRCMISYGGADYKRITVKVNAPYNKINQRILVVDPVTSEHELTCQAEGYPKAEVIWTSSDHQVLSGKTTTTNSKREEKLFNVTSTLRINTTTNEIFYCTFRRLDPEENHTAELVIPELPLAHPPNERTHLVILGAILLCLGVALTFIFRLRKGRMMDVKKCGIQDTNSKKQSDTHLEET

Regarding `COc1cc(-n2ncc3c(-c4cccc(-c5ccc(CN6CC7(CNC(=O)C7)C6)c(OC)n5)c4Cl)cccc32)ncc1CNC[C@@H](C)O` [Example 110, (R)-2-((6-(2-chloro-3-(1-(5-(((2-hydroxypropyl)amino)methyl)-4-methoxypyridin-2-yl)-1H-indazol-4-yl)phenyl)-2-methoxypyridin-3-yl)methyl)-2,6-diazaspiro[3.4]octan-7-one], the values for the half-inhibitory concentration (IC50) (at PD-1/PD-L1 interaction; in experiment [1]) were 201 to 2000 nM and below 1 nM, respectively.

As to `COc1cc(-n2ncc3c(-c4cccc(-c5ccc(CN6CC7(CNC(=O)C7)C6)c(OC)n5)c4Cl)cccc32)ncc1CN[C@H]1C[C@@H](O)C1` [Example 111, 2-((6-(2-chloro-3-(1-(5-(((cis-3-hydroxycyclobutyl)amino)methyl)-4-methoxypyridin-2-yl)-1H-indazol-4-yl)phenyl)-2-methoxypyridin-3-yl)methyl)-2,6-diazaspiro[3.4]octan-7-one], the figures for the IC50 (against PD-1/PD-L1 interaction; in experiment [1]) were 201 to 2000 nM and below 1 nM, respectively.

For the molecule `COc1cc(-n2ncc3c(-c4cccc(-c5ccc(CN6CC7(CNC(=O)C7)C6)c(OC)n5)c4Cl)cccc32)cc(OC)c1CNC[C@@H](C)O` [Example 112, (R)-2-((6-(2-chloro-3-(1-(4-(((2-hydroxypropyl)amino)methyl)-3,5-dimethoxyphenyl)-1H-indazol-4-yl)phenyl)-2-methoxypyridin-3-yl)methyl)-2,6-diazaspiro[3.4]octan-7-one], the half-maximal inhibitory concentration (IC50) on PD-1/PD-L1 interaction was below 200 nM; in experiment [1], below 1 nM.

On to `COc1cc(-n2ncc3c(-c4cccc(-c5ccc(CN[C@H]6C[C@@H](O)C6)c(OC)n5)c4Cl)cccc32)cc(OC)c1CNC[C@@H](C)O` [Example 113, cis-3-(((6-(2-chloro-3-(1-(4-((((R)-2-hydroxypropyl)amino)methyl)-3,5-dimethoxyphenyl)-1H-indazol-4-yl)phenyl)-2-methoxypyridin-3-yl)methyl)amino)cyclobutan-1-ol], for which the IC50 at PD-1/PD-L1 interaction is below 200 nM; in experiment [1], below 1 nM.

Turning to `COc1cc(-n2ncc3c(-c4cccc(-c5ccc(C6=NCCN6)c(OC)n5)c4Cl)cccc32)cc(OC)c1CN1CC(C)(C(N)=O)C1` [Example 114, 1-(4-(4-(2-chloro-3-(5-(4,5-dihydro-1H-imidazol-2-yl)-6-methoxypyridin-2-yl)phenyl)-1H-indazol-1-yl)-2,6-dimethoxybenzyl)-3-methylazetidine-3-carboxamide], the IC50 at PD-1/PD-L1 interaction lay in the range of 201 to 2000 nM; in experiment [1], 1 to 10 nM.

Consider `COc1cc(-n2ncc3c(-c4cccc(-c5ccc(CN6CC7(CCC(=O)N7)C6)c(OC)n5)c4Cl)cccc32)ncc1CNCCO` [Example 116, 2-((6-(2-chloro-3-(1-(5-(((2-hydroxyethyl)amino)methyl)-4-methoxypyridin-2-yl)-1H-indazol-4-yl)phenyl)-2-methoxypyridin-3-yl)methyl)-2,5-diazaspiro[3.4]octan-6-one], for which the values for the IC50 (against PD-1/PD-L1 interaction; in experiment [1]) were below 200 nM and below 1 nM, respectively.

Take `COc1cc(-n2ncc3c(-c4cccc(-c5ccc(CNC[C@@H]6CCC(=O)N6)c(OC)n5)c4Cl)cccc32)cc(OC)c1CN1CC[C@@H](C(=O)O)C1` [Example 117, (R)-1-(4-(4-(2-chloro-3-(6-methoxy-5-(((((S)-5-oxopyrrolidin-2-yl)methyl)amino)methyl)pyridin-2-yl)phenyl)-1H-indazol-1-yl)-2,6-dimethoxybenzyl)pyrrolidine-3-carboxylic acid]: the values for the concentration for half-maximal inhibition (IC50) (against PD-1/PD-L1 interaction; in experiment [1]) were below 200 nM and below 1 nM, respectively.

As for `COc1cc(-n2ncc3c(-c4cccc(-c5ccc(CN[C@H]6C[C@@H](O)C6)c(OC)n5)c4Cl)cccc32)ncc1CN[C@@H](CO)C(N)=O` [Example 118, (S)-2-(((6-(4-(2-chloro-3-(5-(((cis-3-hydroxycyclobutyl)amino)methyl)-6-methoxypyridin-2-yl)phenyl)-1H-indazol-1-yl)-4-methoxypyridin-3-yl)methyl)amino)-3-hydroxypropanamide], the IC50 is above 2000 nM at PD-1/PD-L1 interaction and below 1 nM in experiment [1].

In the case of `COc1cc(-n2ncc3c(-c4cccc(-c5ccc(CN[C@H]6C[C@@H](O)C6)c(OC)n5)c4Cl)cccc32)cc(OC)c1CN[C@@H](C)CO` [Example 119, cis-3-(((6-(2-chloro-3-(1-(4-((((S)-1-hydroxypropan-2-yl)amino)methyl)-3,5-dimethoxyphenyl)-1H-indazol-4-yl)phenyl)-2-methoxypyridin-3-yl)methyl)amino)cyclobutanol], the half-maximal inhibitory concentration (IC50) on PD-1/PD-L1 interaction is 201 to 2000 nM; in experiment [1] it was below 1 nM.

As for `COc1cc(-n2ncc3c(-c4cccc(-c5ccc(CN[C@H]6C[C@@H](O)C6)c(OC)n5)c4Cl)cccc32)ncc1CN[C@H](CO)C(=O)O` [Example 120, ((6-(4-(2-chloro-3-(5-(((cis-3-hydroxycyclobutyl)amino)methyl)-6-methoxypyridin-2-yl)phenyl)-1H-indazol-1-yl)-4-methoxypyridin-3-yl)methyl)-D-serine], the 50% inhibitory concentration (IC50) against PD-1/PD-L1 interaction was 201 to 2000 nM; in experiment [1], below 1 nM.

Turning to `COc1cc(-n2ncc3c(-c4cccc(-c5ccc(CN[C@H]6C[C@@H](O)C6)c(OC)n5)c4Cl)cccc32)cc(OC)c1CN[C@@H](CO)C(N)=O` [Example 121, (S)-2-((4-(4-(2-chloro-3-(5-(((cis-3-hydroxycyclobutyl)amino)methyl)-6-methoxypyridin-2-yl)phenyl)-1H-indazol-1-yl)-2,6-dimethoxybenzyl)amino)-3-hydroxypropanamide], the IC50 is 201 to 2000 nM against PD-1/PD-L1 interaction and below 1 nM in experiment [1].

For the molecule `COc1cc(-n2ncc3c(-c4cccc(-c5ccc(CN[C@H]6C[C@@H](O)C6)c(OC)n5)c4Cl)cccc32)ncc1CNC[C@@H](C)O` [Example 122, cis-3-(((6-(2-chloro-3-(1-(5-((((R)-2-hydroxypropyl)amino)methyl)-4-methoxypyridin-2-yl)-1H-indazol-4-yl)phenyl)-2-methoxypyridin-3-yl)methyl)amino)cyclobutanol], the IC50 was in the range of 201 to 2000 nM on PD-1/PD-L1 interaction and 1 to 10 nM in experiment [1].

On to `COc1cc(-n2ncc3c(-c4cccc(-c5ccc(CNC[C@@H]6CCC(=O)N6)c(OC)n5)c4Cl)cccc32)cc(OC)c1CN[C@H](CO)C(=O)O` [Example 123, (4-(4-(2-chloro-3-(6-methoxy-5-(((((S)-5-oxopyrrolidin-2-yl)methyl)amino)methyl)pyridin-2-yl)phenyl)-1H-indazol-1-yl)-2,6-dimethoxybenzyl)-D-serine], for which the results for the IC50 (on PD-1/PD-L1 interaction; in experiment [1]) were below 200 nM and below 1 nM, respectively.

For `COc1cc(-n2ncc3c(-c4cccc(-c5ccc(CN[C@H]6C[C@@H](O)C6)c(OC)n5)c4Cl)cccc32)ncc1CN1CC(C)(O)C1` [Example 124, 1-((6-(4-(2-chloro-(5-(((cis-3-hydroxycyclobutyl)amino)methyl)-6-methoxypyridin-2-yl)phenyl)-1H-indazol-1-yl)-4-methoxypyridin-3-yl)methyl)-3-methylazetidin-3-ol], the results for the IC50 (against PD-1/PD-L1 interaction; in experiment [1]) were 201 to 2000 nM and below 1 nM, respectively.

In the case of `COc1cc(-n2ncc3c(-c4cccc(-c5ccc(CN[C@H]6C[C@@H](O)C6)c(OC)n5)c4Cl)cccc32)cc(OC)c1CNCCO` [Example 125, cis-3-(((6-(2-chloro-3-(1-(4-(((2-hydroxyethyl)amino)methyl)-3,5-dimethoxyphenyl)-1H-indazol-4-yl)phenyl)-2-methoxypyridin-3-yl)methyl)amino)cyclobutanol], the IC50 on PD-1/PD-L1 interaction is below 200 nM; in experiment [1], below 1 nM.

The values are drawn from patent publication US20240336601A1 (Chulalongkorn University, priority 2020, published 2024).
